# Assay results as given in publication PMC3088502 (Bioorganic & medicinal chemistry, 2011).
# Columns and labels:
# [1] = test system: AKT phosphorylation at Ser473 in BxPC3 cells; test: Detection of pAKT; assay type: cell-based, Human; settings: 10 μM, 4 h
# [2] = test system: BxPC3 cells; test: Cellular proliferation / cell survival micro-cytotoxicity; assay type: cell-based, Human
structure (smiles),measurement,setting,value
CCCCCCCCCCCCc1ccc(S(=O)(=O)Nc2ccccc2)cc1 [Compound 45],"Inhibition of AKT phosphorylation at Ser473 (pAKT), in words",[1],did not inhibit the production of pAKT
same,"Inhibition of BxPC-3 cell proliferation, in words",[2],did inhibit BxPC-3 cell proliferation
